Where two headings read alike, the source gives them in different places.
What was measured:
EsaR [1] = target: T1, EsaR (Pantoea stewartii subsp. stewartii, UniProt P54293); experiment: cell-based; conditions: for activation at 100 µM / inhibition at 100 µM: 3.5 h; for activation at 100 µM: read-out: EsaR-repressed (pesaR) [%] agonism; for inhibition at 100 µM: read-out: EsaR-repressed (pesaR) antagonism
T1 construct: expressed in transfected cells; host or cells: E. coli JLD271 (K12 ΔsdiA), arabinose-induced pJN105-esaR
Excerpt: (§1) EsaR transcriptional activation and repression were examined using E. coli and P. stewartii reporters (strains and plasmids listed in Table S1; see Methods section for assay details). […] We constructed reporters in E. coli based on previously reported EsaR reporters (Table S1). Each strain contained an EsaR expression plasmid (pJN105-esaR) and a reporter plasmid with either an EsaR-activated promoter (pesaS) or an EsaR-repressed promoter (pesaR) upstream of luxABCDE or GFP.
(§2) Gibson assembly was used to create all constructs. Plasmid pJN105-esaR was created by amplifying esaR from pAC-esaR and inserting it into pJN105. pesaSlux was created by inserting pesaS, amplified from pPesaR-AC:gfp, into the pCS-pesaRlux backbone. The pesaR promoter was amplified from pCS-pesaRlux and inserted into the pPesaR-AC:gfp backbone to create pesaR:GFP. P. stewartii reporter strains were created by transforming pesaR:GFP or pPesaR-AC:gfp into ESN51 by conjugation using E. coli S17 λpir as the donor strain. See SI for details of E. coli ExpR2 reporter construction.
(§3) Overnight cultures were diluted 1:10 in LB medium with appropriate antibiotics and grown at 37 °C (200 rpm) to an OD600 of 0.22–0.27 before induction with 4 mg mL^–1 arabinose. OD600 was measured by placing 200 μL of culture into a 96-well plate and reading optical density using the BioTek Synergy 2 plate reader. Assays were performed in technical triplicate in clear-bottom, white and clear-bottom, black 96-well microtiter plates (Corning Costar 3903 and 3904) for luminescence and fluorescence reporters, respectively. Compounds were dissolved in DMSO, and 2 μL of this stock, or DMSO as a negative control, was added to each well prior to adding 198 μL of induced culture. Plates were incubated at 37 °C (200 rpm) for 3.5 h. Each well was mixed by pipetting before reading OD600 and either luminescence or fluorescence. Single-point screens were performed with one or two biological replicates, and all dose–response curves were performed in biological triplicate. EC50 values were calculated based on a nonlinear regression of log(concentration) vs response (three parameters) using GraphPad Prism 9 software.

EsaR [2] = target: T1, EsaR; experiment: cell-based; conditions: for activation at 100 µM / inhibition at 100 µM: 3.5 h; for activation at 100 µM: read-out: EsaR-activated (pesaS) [%] agonism; for inhibition at 100 µM: read-out: EsaR-activated (pesaS) antagonism; for EsaR agonism at 100 μM (bound stated in text): E. coli EsaR reporter; for EsaR antagonism, in words: E. coli EsaR reporters, competed against OHHL at approx. EC50
Excerpt: as §1, §2, §3

LuxR = conditions: cited from earlier work; for LuxR antagonism: 5 µM compound against 5 µM OHHL, negative values indicate potential activators, ref 6 (SI; Palmer et al., 2011); for LuxR [%] (agonism, activation): compounds at 200 μM, luminescence in V. fischeri ES114 (ΔluxI), ref Palmer et al., 2011 (main ref 44, SI ref 6)
ExpR2 = conditions: cited from earlier work; for ExpR2 antagonism (percent inhibition): 5 µM compound against 5 µM OHHL, negative values indicate potential activators; for ExpR2 [%] (agonism, percent activation): compounds at 200 μM, cellulase activity in P. versatile AC5099, ref Palmer et al., 2011 (main ref 44, SI ref 6)
ExpR1 = conditions: cited from earlier work; for ExpR1 antagonism: 5 µM compound against 5 µM OHHL, negative values indicate potential activators, ref 6 (SI; Palmer et al., 2011); for ExpR1 [%] (agonism, activation): compounds at 200 μM, cellulase activity in P. versatile AC5117, ref Palmer et al., 2011 (main ref 44, SI ref 6)
[3] = ref 6 (SI; Palmer et al., 2011)

T1 sequence (P54293 whole entry): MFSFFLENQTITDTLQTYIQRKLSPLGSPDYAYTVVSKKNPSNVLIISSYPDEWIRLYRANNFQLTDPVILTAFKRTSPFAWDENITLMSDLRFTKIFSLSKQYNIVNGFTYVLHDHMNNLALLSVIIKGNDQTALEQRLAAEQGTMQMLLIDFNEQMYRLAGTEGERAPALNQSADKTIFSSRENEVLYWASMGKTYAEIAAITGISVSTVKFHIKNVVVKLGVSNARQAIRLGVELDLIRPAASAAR

SMILES: O=C1OCC[C@@H]1NS(=O)(=O)c1ccc(Cl)c(Cl)c1Cl [GAF 45]
- EC50 (EsaR [1]): 4.9 µM
- EC50 (EsaR [2]): 4.7 µM

SMILES: COc1cccc(CC(=O)N[C@H]2CCOC2=O)c1 [E2]
- LuxR antagonism (LuxR): 71%
- LuxR [%] (agonism, activation) (LuxR): 7%
- ExpR2 antagonism (percent inhibition) (ExpR2; [3]): 59%
- ExpR2 [%] (agonism, percent activation) (ExpR2): 24%
- ExpR1 antagonism (ExpR1): 68%
- ExpR1 [%] (agonism, activation) (ExpR1): 4%
- activation at 100 µM (EsaR [1]): 3%
- inhibition at 100 µM (EsaR [1]): -42%
- activation at 100 µM (EsaR [2]): 4%
- inhibition at 100 µM (EsaR [2]): 0%

SMILES: Cc1cccc(CC(=O)N[C@H]2CCOC2=O)c1 [E1]
- LuxR antagonism (LuxR): 78%
- LuxR [%] (agonism, activation) (LuxR): 5%
- ExpR2 antagonism (percent inhibition) (ExpR2; [3]): 62%
- ExpR2 [%] (agonism, percent activation) (ExpR2): 13%
- ExpR1 antagonism (ExpR1): 74%
- ExpR1 [%] (agonism, activation) (ExpR1): 6%
- activation at 100 µM (EsaR [1]): 12%
- inhibition at 100 µM (EsaR [1]): 2%
- activation at 100 µM (EsaR [2]): 25%
- inhibition at 100 µM (EsaR [2]): 1%

SMILES: CCCCCS(=O)(=O)N[C@H]1CCOC1=O [A10]
- EC50 (EsaR [1]): 17 µM
- EC50 (EsaR [2]): 17 µM
- fold less potent than hexanoyl HL in EsaR (EsaR [2]; E. coli EsaR reporter EC50 values): about 3 fold

SMILES: O=C1OCC[C@@H]1NS(=O)(=O)Cc1cccc(Br)c1 [GAF 41]
- EsaR agonism at 100 μM (bound stated in text) (EsaR [2]): ≤ 50%

SMILES: O=C(Cc1ccc(I)cc1)N[C@H]1CCOC1=O [C10]
- ExpR2 antagonism (percent inhibition) (ExpR2; [3]): 68%
- ExpR2 [%] (agonism, percent activation) (ExpR2): 19%
- IC50 (ExpR2; previously reported phenotypic reporter data, ref 6 (SI; Palmer et al., 2011)): 0.9 µM
- ExpR1 antagonism (ExpR1): 73%
- ExpR1 [%] (agonism, activation) (ExpR1): 6%
- activation at 100 µM (EsaR [1]): 0.4%
- inhibition at 100 µM (EsaR [1]): 25%
- activation at 100 µM (EsaR [2]): 7%
- inhibition at 100 µM (EsaR [2]): -5%

SMILES: CC(C)CC(=O)NC1CCCC1 [RN20]
- EsaR antagonism, in words (EsaR [2]): None of these compounds antagonized EsaR

SMILES: O=C1OCC[C@@H]1NS(=O)(=O)Cc1cccc(Cl)c1 [GAF 33]
- EsaR agonism at 100 μM (bound stated in text) (EsaR [2]): ≤ 50%

SMILES: O=C(COc1ccc(I)cc1)NC1CCCC1 [RN17]
- EsaR antagonism, in words (EsaR [2]): None of these compounds antagonized EsaR

SMILES: CCCS(=O)(=O)N[C@H]1CCOC1=O [A8]
- EC50 (EsaR [1]): ≥ 71 µM
- EC50 (EsaR [2]): ≥ 66 µM

SMILES: O=C(Cc1cccc([N+](=O)[O-])c1)NC1CCCC1 [F18]
- EsaR antagonism, in words (EsaR [2]): None of these compounds antagonized EsaR

SMILES: O=C1OCC[C@@H]1NS(=O)(=O)c1cc(Cl)cc(Cl)c1 [GAF 50]
- EC50 (EsaR [1]): 24 µM
- EC50 (EsaR [2]): 24 µM

SMILES: O=C(CCc1cccc([N+](=O)[O-])c1)N[C@H]1CCOC1=O [E38]
- EC50 (EsaR [2]): ≥ 64 µM

SMILES: Cc1ccc(CS(=O)(=O)N[C@H]2CCOC2=O)cc1 [GAF 13]
- EsaR agonism at 100 μM (bound stated in text) (EsaR [2]): ≤ 50%

SMILES: CC(=O)CC(=O)N[C@H]1CCOC1=O [OBHL, reference compound]
- EC50 (EsaR [1]): 97 µM

From PMC12459020, “Chemical Probes that Target a Dissociative LuxR-Type Quorum Sensing Receptor in Gram-Negative Bacteria” (ACS Chemical Biology, 2025)
